Data published in patent US12410164B2, “Heterocyclic compounds and medical use thereof” (FONDAZIONE TELETHON, priority 2018, dated 2025).

Target: F508del-CFTR (Homo sapiens, UniProt P13569, DEL508-508)
Assay: HS-YFP kinetic fluorescence (iodide quenching rate) assay in CFBE41o− cells
Assay type: cell-based
Design: expressed in transfected cells; host or cells: CFBE41o- cells with expression of F508del-CFTR and HS-YFP (generated as in Sondo et al. 2011)
Conditions: Table 1; compound at 10 μM plus VX-809; (QRTOT − QRVX)/QRVX, HS-YFP assay
Description: CFBE41o- cells, with expression of F508del-CFTR and halogen-sensitive fluorescent protein, were generated as previously described (Sondo E, et al. Am J Physiol. 2011, 301, […]-[…]). For the test, the cells were seeded in 96-well microplates using a culture medium consisting of DMEM and Ham's F12 (1:1) supplemented with 10% foetal bovine serum. After 24 hours from seeding, the cells were treated for another 24 hours with the test compounds dissolved in the culture medium at the desired concentrations. As a negative control, the solvent of the compounds (dimethyl sulfoxide, DMSO) dissolved in the medium with the same dilution ratio (final percentage of DMSO:0.1-0.2%) was used. As a positive control, the corrector VX-809 (Selleck Chemicals, […]) was used at a concentration of 1 μM. After treatment, the medium with the compounds was removed and the cells were stimulated with forskolin (Sigma-Aldrich, F6886) 20 μM plus genistein (Sigma-Aldrich, G6649) 50 μM (in 60 μl of PBS saline) to maximally activate the CFTR channels present in the membrane. In a microplate reader (FLUOstar-Omega, BMG) the fluorescence of the cells in each well was read for 14 seconds, with an injection of 165 μl of a iodide-enriched saline (modified PBS where NaCl, 137 mM, has been replaced with the same concentration of NaI). The iodide transport activity in each well was evaluated by subtraction of the background fluorescence (measured in a well without cells), subsequent normalization with respect to the initial fluorescence and finally by interpolation of the fluorescence quenching phase with an exponential function that allows the derivation of the maximum slope (quenching rate, QR). The activity of the synthesized compounds was initially evaluated on the CFBE41o- cell line with expression of the mutated F508del-CFTR protein described above (Sondo E, et al. Am J Physiol. 2011, 301, […]-[…]). For this purpose, a functional assay based on the fluorescent YFP protein sensitive to halides, HS-YFP, was used (Galietta L J, et al. J Biol Chem. 2001, 276, 19723-19728). The fluorescence of the HS-YFP protein is turned off by iodide. Therefore, if exposed to a solution containing iodide, cells with HS-YFP expression show a quenching speed of the fluorescence which depends on the presence and activity of anionic channels. Under control conditions, the mutated CFTR protein presents a serious defect of stability and maturation, so it remains trapped in the endoplasmic reticulum not reaching the cell surface in enough quantity. In the HS-YFP-based assay, this defect results in a low anion transport capacity and therefore in a low quenching rate (QR). Treatment for a prolonged time (e.g. 24 hours) with a corrector determines an improvement in protein maturation with an increase in the number of CFTR channels present in the membrane and therefore an increase in the flux of iodide and QR. In a first phase, the authors screened about 200 heterocyclic molecules with various nitrogenated tricyclic scaffolds. Conditions previously described have been used for screening (Sondo E, et al. Am J Physiol. 2011, 301, […]-[…]) and reported herein in the Materials and Methods section. A threshold equal to the average value plus three times the standard deviation of the QR of wells without compounds (only DMSO in the culture medium) was used as a criterion for the selection of active compounds.

Sequence of F508del-CFTR (P13569 with tags, fused parts or gaps DEL508-508): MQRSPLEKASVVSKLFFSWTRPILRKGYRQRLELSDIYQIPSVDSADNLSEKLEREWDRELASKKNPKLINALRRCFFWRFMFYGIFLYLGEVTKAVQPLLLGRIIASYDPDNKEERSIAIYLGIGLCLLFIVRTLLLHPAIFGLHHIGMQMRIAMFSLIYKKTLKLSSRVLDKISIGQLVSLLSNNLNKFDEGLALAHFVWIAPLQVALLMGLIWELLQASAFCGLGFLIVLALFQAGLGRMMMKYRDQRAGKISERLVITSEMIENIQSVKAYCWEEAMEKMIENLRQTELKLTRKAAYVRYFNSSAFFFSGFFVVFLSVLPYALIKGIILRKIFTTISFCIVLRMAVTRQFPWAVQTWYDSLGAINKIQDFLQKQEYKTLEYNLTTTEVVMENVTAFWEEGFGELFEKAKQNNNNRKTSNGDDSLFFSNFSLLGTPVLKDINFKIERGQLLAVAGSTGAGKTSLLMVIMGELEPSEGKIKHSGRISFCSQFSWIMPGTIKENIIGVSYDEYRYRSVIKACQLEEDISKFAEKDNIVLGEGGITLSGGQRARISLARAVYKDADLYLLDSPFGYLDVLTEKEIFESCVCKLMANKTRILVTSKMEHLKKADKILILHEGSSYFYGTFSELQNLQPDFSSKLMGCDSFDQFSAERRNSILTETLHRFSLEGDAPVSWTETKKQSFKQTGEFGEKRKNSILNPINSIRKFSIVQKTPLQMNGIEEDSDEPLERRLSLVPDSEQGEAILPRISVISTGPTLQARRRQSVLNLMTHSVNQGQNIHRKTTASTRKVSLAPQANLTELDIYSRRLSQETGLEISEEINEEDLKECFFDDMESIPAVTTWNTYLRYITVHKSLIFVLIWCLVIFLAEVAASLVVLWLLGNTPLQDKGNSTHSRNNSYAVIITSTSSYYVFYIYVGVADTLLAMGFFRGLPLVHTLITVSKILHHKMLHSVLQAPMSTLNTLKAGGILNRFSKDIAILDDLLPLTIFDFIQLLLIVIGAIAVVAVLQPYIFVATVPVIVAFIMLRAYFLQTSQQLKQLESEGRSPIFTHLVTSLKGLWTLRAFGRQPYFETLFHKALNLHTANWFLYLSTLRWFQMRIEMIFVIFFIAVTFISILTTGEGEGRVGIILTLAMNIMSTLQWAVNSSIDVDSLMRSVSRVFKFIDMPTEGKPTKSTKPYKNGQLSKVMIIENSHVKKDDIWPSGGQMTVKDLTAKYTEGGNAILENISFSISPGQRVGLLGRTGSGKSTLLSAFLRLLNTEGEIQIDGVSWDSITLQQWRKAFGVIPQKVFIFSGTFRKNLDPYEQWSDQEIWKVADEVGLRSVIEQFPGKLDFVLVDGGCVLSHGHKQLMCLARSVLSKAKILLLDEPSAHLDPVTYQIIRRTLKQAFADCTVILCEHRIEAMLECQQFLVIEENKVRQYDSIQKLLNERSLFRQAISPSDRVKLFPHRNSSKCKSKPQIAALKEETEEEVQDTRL

AI (%) additivity index [%]	Compound
81	CCOC(=O)c1c(Br)c2c(n1Cc1ccc(C)nc1)-c1[nH]c(=O)c(S(=O)(=O)c3ccccc3)cc1CC2 [PP067, Ethyl 7-(benzenesulfonyl)-3-bromo-1-[(6-methylpyridin-3-yl)methyl]-8-oxo-4,5,8,9-tetrahydro-1H-pyrrolo[3,2-h]quinoline-2-carboxylate]
116	CCOC(=O)c1cc2c(n1Cc1c(C)cc(C)cc1C)-c1[nH]c(=O)c(S(=O)(=O)c3ccccc3)cc1CC2 [PP068, Ethyl 7-(benzenesulfonyl)-8-oxo-1-[(2,4,6-trimethylphenyl)methyl]-4,5,8,9-tetrahydro-1H-pyrrolo[3,2-h]quinoline-2-carboxylate]
175	CCOC(=O)c1c(Br)c2c(n1Cc1c(C)cc(C)cc1C)-c1[nH]c(=O)c(S(=O)(=O)c3ccccc3)cc1CC2 [PP069, Ethyl 7-(benzenesulfonyl)-3-bromo-8-oxo-1-[(2,4,6-trimethylphenyl)methyl]-4,5,8,9-tetrahydro-1H-pyrrolo[3,2-h]quinoline-2-carboxylate]
101	CCOC(=O)c1cc2c(n1Cc1ccc(C(F)(F)F)cc1)-c1[nH]c(=O)c(S(=O)(=O)c3ccccc3)cc1CC2 [PP070, Ethyl 7-(benzenesulfonyl)-8-oxo-1-{[4-(trifluoromethyl)phenyl]methyl}-4,5,8,9-tetrahydro-1H-pyrrolo[3,2-h]quinoline-2-carboxylate]
35	CCOC(=O)c1c(Br)c2c(n1Cc1ccc(C(F)(F)F)cc1)-c1[nH]c(=O)c(S(=O)(=O)c3ccccc3)cc1CC2 [PP071, Ethyl 7-(benzenesulfonyl)-3-bromo-8-oxo-1-{[4-(trifluoromethyl)phenyl]methyl}-4,5,8,9-tetrahydro-1H-pyrrolo[3,2-h]quinoline-2-carboxylate]
420	CCOC(=O)c1cc2c(n1Cc1ccc(F)cc1)-c1[nH]c(=O)c(S(=O)(=O)c3ccccc3)cc1CC2 [PP072, Ethyl 7-(benzenesulfonyl)-1-[(4-fluorophenyl)methyl]-8-oxo-4,5,8,9-tetrahydro-1H-pyrrolo[3,2-h]quinoline-2-carboxylate]
442	CCOC(=O)c1c(Br)c2c(n1Cc1ccc(F)cc1)-c1[nH]c(=O)c(S(=O)(=O)c3ccccc3)cc1CC2 [PP073, Ethyl 7-(benzenesulfonyl)-3-bromo-1-[(4-fluorophenyl)methyl]-8-oxo-4,5,8,9-tetrahydro-1H-pyrrolo[3,2-h]quinoline-2-carboxylate]
34	CCOC(=O)c1cc2c(n1CCCN(C)C)-c1[nH]c(=O)c(S(=O)(=O)c3ccccc3)cc1CC2 [PP075, Ethyl 7-(benzenesulfonyl)-1-[3-(dimethylamino)propyl]-8-oxo-4,5,8,9-tetrahydro-1H-pyrrolo[3,2-h]quinoline-2-carboxylate]
244	CCOC(=O)c1c(Cl)c2c(n1Cc1ccc(C)cc1)-c1[nH]c(=O)c(S(=O)(=O)c3ccccc3)cc1CC2 [PP076, Ethyl 7-(benzenesulfonyl)-3-chloro-1-[(4-methylphenyl)methyl]-8-oxo-4,5,8,9-tetrahydro-1H-pyrrolo[3,2-h]quinoline-2-carboxylate]
202	CCOC(=O)c1c(I)c2c(n1Cc1ccc(C)cc1)-c1[nH]c(=O)c(S(=O)(=O)c3ccccc3)cc1CC2 [PP077, Ethyl 7-(benzenesulfonyl)-3-iodo-1-[(4-methylphenyl)methyl]-8-oxo-4,5,8,9-tetrahydro-1H-pyrrolo[3,2-h]quinoline-2-carboxylate]
37	Cc1ccc(Cn2c(C(=O)O)cc3c2-c2[nH]c(=O)c(S(=O)(=O)c4ccccc4)cc2CC3)cc1 [PP078, 7-(Benzenesulfonyl)-1-[(4-methylphenyl)methyl]-8-oxo-4,5,8,9-tetrahydro-1H-pyrrolo[3,2-h]quinoline-2-carboxylic acid]
38	Cc1ccc(Cn2c(C(=O)O)c(Br)c3c2-c2[nH]c(=O)c(S(=O)(=O)c4ccccc4)cc2CC3)cc1 [PP079, 7-(Benzenesulfonyl)-3-bromo-1-[(4-methylphenyl)methyl]-8-oxo-4,5,8,9-tetrahydro-1H-pyrrolo[3,2-h]quinoline-2-carboxylic acid]
20	Cc1cccc(Cn2c(C(=O)O)c(Br)c3c2-c2[nH]c(=O)c(S(=O)(=O)c4ccccc4)cc2CC3)c1 [PP081, 7-(Benzenesulfonyl)-3-bromo-1-[(3-methylphenyl)methyl]-8-oxo-4,5,8,9-tetrahydro-1H-pyrrolo[3,2-h]quinoline-2-carboxylic acid]
31	Cc1cccc(Cn2c(C(N)=O)cc3c2-c2[nH]c(=O)c(S(=O)(=O)c4ccccc4)cc2CC3)c1 [PP082, 7-(Benzenesulfonyl)-1-[(3-methylphenyl)methyl]-8-oxo-4,5,8,9-tetrahydro-1H-pyrrolo[3,2-h]quinoline-2-carboxamide]
53	Cc1cccc(Cn2c(C(=O)NC(C)C)cc3c2-c2[nH]c(=O)c(S(=O)(=O)c4ccccc4)cc2CC3)c1 [PP083, 7-(Benzenesulfonyl)-1-[(3-methylphenyl)methyl]-8-oxo-N-(propan-2-yl)-4,5,8,9-tetrahydro-1H-pyrrolo[3,2-h]quinoline-2-carboxamide]
10	Cc1cccc(Cn2c(C(=O)NC3CC3)cc3c2-c2[nH]c(=O)c(S(=O)(=O)c4ccccc4)cc2CC3)c1 [PP084, 7-(Benzenesulfonyl)-N-cyclopropyl-1-[(3-methylphenyl)methyl]-8-oxo-4,5,8,9-tetrahydro-1H-pyrrolo[3,2-h]quinoline-2-carboxamide]
116	Cc1ccc(Cn2c(C(=O)NC(C)C)c(Br)c3c2-c2[nH]c(=O)c(S(=O)(=O)c4ccccc4)cc2CC3)cc1 [PP086, 7-(Benzenesulfonyl)-3-bromo-1-[(4-methylphenyl)methyl]-8-oxo-N-(propan-2-yl)-4,5,8,9-tetrahydro-1H-pyrrolo[3,2-h]quinoline-2-carboxamide]
11	Cc1ccc(Cn2c(C(N)=O)c(Br)c3c2-c2[nH]c(=O)c(S(=O)(=O)c4ccccc4)cc2CC3)cc1 [PP089, 7-(Benzenesulfonyl)-3-bromo-1-[(4-methylphenyl)methyl]-8-oxo-4,5,8,9-tetrahydro-1H-pyrrolo[3,2-h]quinoline-2-carboxamide]
36	Cc1cccc(Cn2c(C(=O)O)cc3c2-c2[nH]c(=O)c(S(=O)(=O)c4ccccc4)cc2CC3)c1 [PP090, 7-(Benzenesulfonyl)-1-[(3-methylphenyl)methyl]-8-oxo-4,5,8,9-tetrahydro-1H-pyrrolo[3,2-h]quinoline-2-carboxylic acid]
208	Cc1cccc(Cn2c(C(=O)NC(C)C)c(Br)c3c2-c2[nH]c(=O)c(S(=O)(=O)c4ccccc4)cc2CC3)c1 [PP091, 7-(Benzenesulfonyl)-3-bromo-1-[(3-methylphenyl)methyl]-8-oxo-N-(propan-2-yl)-4,5,8,9-tetrahydro-1H-pyrrolo[3,2-h]quinoline-2-carboxamide]
52	Cc1cccc(Cn2c(C(=O)NC3CC3)cc3c2-c2[nH]c(=O)c(S(=O)(=O)c4ccccc4)cc2CC3)c1 [PP092, 7-(Benzenesulfonyl)-N-cyclopropyl-1-[(3-methylphenyl)methyl]-8-oxo-4,5,8,9-tetrahydro-1H-pyrrolo[3,2-h]quinoline-2-carboxamide]
